Results published in patent publication US9776972B2, “Pyrazole derivatives as arginine methyltransferase inhibitors and uses thereof” (priority 2013, dated 2017).

Biological target: T1, Human CARM1 (PRMT4) (Homo sapiens, UniProt Q86X55)
T1 construct: Flag-CARM1-His; made in house; host or cells: HEK 293F cells (BacMam baculovirus)
T1 sequence (Q86X55 1-585 isoform Q86X55-1): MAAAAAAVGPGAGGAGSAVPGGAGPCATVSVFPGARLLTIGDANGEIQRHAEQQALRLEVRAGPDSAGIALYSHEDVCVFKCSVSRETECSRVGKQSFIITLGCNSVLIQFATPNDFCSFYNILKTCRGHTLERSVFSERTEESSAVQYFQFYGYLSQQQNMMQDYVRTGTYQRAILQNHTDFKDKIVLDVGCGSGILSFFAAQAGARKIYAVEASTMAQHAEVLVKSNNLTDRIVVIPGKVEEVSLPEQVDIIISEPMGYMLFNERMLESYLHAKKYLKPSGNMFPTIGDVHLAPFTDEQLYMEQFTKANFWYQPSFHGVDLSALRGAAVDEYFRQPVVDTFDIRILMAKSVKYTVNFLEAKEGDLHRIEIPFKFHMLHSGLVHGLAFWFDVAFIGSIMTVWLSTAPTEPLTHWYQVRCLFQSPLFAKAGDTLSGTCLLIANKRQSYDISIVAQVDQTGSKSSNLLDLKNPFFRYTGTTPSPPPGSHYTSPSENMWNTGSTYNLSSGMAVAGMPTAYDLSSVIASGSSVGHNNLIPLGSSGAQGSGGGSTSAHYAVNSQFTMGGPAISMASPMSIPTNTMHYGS
Assay: CARM1 Biochemical Assay (3H-SAM Flashplate, peptide substrate)
Conditions: single experiment or average of multiple experiments
How it was run: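 Flag-CARM1-His from baculovirus was pre-incubated with compound for 30 min at room temperature in 20 mM Bicine pH 7.6, then reacted with 3H-SAM and a biotinylated H3(16-30) R26-monomethyl peptide.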

Row | IC50 [nM] | Compound
1 | 1130 | CN(CCN)Cc1nn(C)cc1-c1ccc(C#N)cc1 [Compound 83]
2 | 7040 | CN(CCN)Cc1c[nH]nc1-c1ccccc1F [Compound 72]
3 | 873 | CN(CCN)Cc1c[nH]nc1-c1ccc(OC(F)F)cc1 [Compound 94]
4 | 392 | CN(CCN)Cc1c[nH]nc1-c1ccc(Cl)cc1 [Compound 95]
5 | 6920 | Cc1ccc(-c2n[nH]cc2CN(C)CCN)c(Cl)c1 [Compound 90]
6 | 1630 | CN(CCN)Cc1cnn(C2COC2)c1-c1ccc(F)cc1 [Compound 81]
7 | 690 | CN(CCN)Cc1c[nH]nc1-c1ccc(C(F)(F)F)cc1 [Compound 92]
8 | 5220 | Cc1ccc(-c2n[nH]cc2CN(C)CCN)c(C)c1 [Compound 88]
9 | 3630 | CN(CCN)Cc1c[nH]nc1-c1cccc(C#N)c1 [Compound 70]
10 | 3920 | CN(CCN)Cc1n[nH]cc1-c1ccc(F)cc1 [Compound 69]
11 | 1830 | CN(CCN)Cc1c[nH]nc1-c1ccc(OC(F)(F)F)cc1 [Compound 93]
12 | 715 | CN(CCN)Cc1c[nH]nc1-c1cccc(F)c1 [Compound 71]
13 | 2900 | CN(CCN)Cc1c[nH]nc1-c1ccccc1 [Compound 73]
14 | 3530 | CN(CCN)Cc1c[nH]nc1-c1ccc(C(C)(C)C)cc1 [Compound 74]
15 | 5980 | CN(CCN)Cc1c[nH]nc1-c1ccc(F)cc1Cl [Compound 89]
16 | 4380 | COc1ccc(-c2n[nH]cc2CN(C)CCN)c(OC)c1 [Compound 87]
17 | 9010 | CN(CCN)Cc1c[nH]nc1-c1ccc(N2CCNCC2)cc1 [Compound 82]
18 | 4190 | CN(CCN)Cc1c[nH]nc1-c1ccc(Cl)cc1Cl [Compound 86]

Continued, compound first:

Row | Compound | IC50 [nM]
19 | CNCCN(C)Cc1c[nH]nc1-c1cccc(N)c1 [Compound 32] | 1130
20 | CNCCN(C)Cc1c[nH]nc1-c1ccccc1F [Compound 48] | 5620
21 | CN(CCN)Cc1cn(C2COC2)nc1-c1ccc(F)cc1 [Compound 77] | 4090
22 | CNCCN(C)Cc1c[nH]nc1-c1cccc(C(C)=O)c1 [Compound 44] | 1090
23 | CNCCN(C)Cc1c[nH]nc1-c1cccc(OC(F)(F)F)c1 [Compound 39] | 2110
24 | CNCCN(C)Cc1cnn(C)c1-c1ccc(F)cc1 [Compound 10] | 1190
25 | CNCCN(C)Cc1c[nH]nc1-c1ccc(-c2ccccc2)cc1 [Compound 47] | 28.3
26 | CNCCN(C)Cc1c[nH]nc1-c1ccc(CC#N)cc1 [Compound 34] | 1370
27 | CCN(CCNC)Cc1c[nH]nc1-c1ccc(F)cc1 [Compound 9] | 2810
28 | CN(CCN)Cc1cnn(C)c1-c1ccc(F)cc1 [Compound 4] | 742
29 | CN(CCN)Cc1c[nH]nc1-c1ccc(F)cc1 [Compound 1] | 1350
30 | CC(C)Oc1ccc(-c2n[nH]cc2CN(C)CCN)cc1 [Compound 67] | 247
31 | CNCCN(C)Cc1c[nH]nc1-c1cccc(NC(C)=O)c1 [Compound 42] | 2240
32 | CNCCN(C)Cc1cnn(CC2CCOCC2)c1-c1ccc(F)cc1 [Compound 12] | 4840
